Assay results: US20230313199A1, “TARGET FOR MODULATING BODY MASS” (Massachusetts Institute of Technology, priority 2020, published 2023)

How the values were obtained:
Type in all cases: cell-based, human
4B8^FL cells [1] = test: OCR and ECAR (Seahorse) in 4B8 cells complemented with full length MFSD7C; details: heme 1 hour
Procedure: FIGS. 4A-4H show NTD of MFSD7C mediates heme effect on mitochondrial respiration. FIGS. 4A-4C show comparison of basal OCR (FIG. 4A), maximal OCR (FIG. 4B) and ECAR (FIG. 4C) of THP-1, 4B8, and 4B8^FL and 4B8^ΔN cells treated with vehicle or heme for 1 hour (n=18 separate experiments). […] Cells were incubated with FPT for 6 hrs, washed and reseeded in poly-lysine coated glass bottom dishes. After cells attached to the glass, medium containing 40 μM heme was added. Cells in the same field were imaged immediately and again 1 hour later. Relative FPT fluorescent intensities, normalized to THP-1, from three experiments are shown. (n=3 independent experiments). […] THP-1, 4B8, 4B8^FL and 4B8^ΔN cells were treated with vehicle or heme for 1 hour and MMP was measured by using JC-10 Mitochondrial Membrane Potential Assay Kit followed by flow cytometry. […] Shown are representative Western blotting data (FIG. 4G) and quantification of band intensities from n=3 independent experiments (FIG. 4H). P-values were calculated using two-way ANOVA (*p<0.05, **p<0.01, ***p<0.005). […]
Measurements of OCR, ECAR, and MMP. Oxygen consumption rate (OCR) and extracellular acidification rate (ECAR) were measured using XF96e Seahorse Extracellular Flux Analyzer per manufacturer's protocol. […]

4B8^FL cells [2] = test: MMP (JC-10 kit, flow cytometry) in 4B8 cells complemented with full length MFSD7C; details: heme 1 hour
Procedure: FIGS. 4A-4H show NTD of MFSD7C mediates heme effect on mitochondrial respiration. FIGS. 4A-4C show comparison of basal OCR (FIG. 4A), maximal OCR (FIG. 4B) and ECAR (FIG. 4C) of THP-1, 4B8, and 4B8^FL and 4B8^ΔN cells treated with vehicle or heme for 1 hour (n=18 separate experiments). […] Cells were incubated with FPT for 6 hrs, washed and reseeded in poly-lysine coated glass bottom dishes. After cells attached to the glass, medium containing 40 μM heme was added. Cells in the same field were imaged immediately and again 1 hour later. Relative FPT fluorescent intensities, normalized to THP-1, from three experiments are shown. (n=3 independent experiments). […] THP-1 cells were co-cultured with 4B8, 4B8^FL, or 4B8^ΔN in FPT solution for 6 hrs, washed and reseeded in poly-lysine coated glass bottom dishes. Cells were imaged by confocal laser-scanning microscopy. […] Representative images from three experiments are shown. Scale bar: 10 μm. […] THP-1, 4B8, 4B8^FL and 4B8^ΔN cells were treated with vehicle or heme for 1 hour and MMP was measured by using JC-10 Mitochondrial Membrane Potential Assay Kit followed by flow cytometry. […] Shown are representative Western blotting data (FIG. 4G) and quantification of band intensities from n=3 independent experiments (FIG. 4H). P-values were calculated using two-way ANOVA (*p<0.05, **p<0.01, ***p<0.005). […]

THP-1 cells = test: Cellular energy charge (ATP/ADP ratio); details: heme 1 hour, reduced to similar levels as in 7CKO cells
Procedure: Measurement of cellular energy charge (ATP/ADP ratio). ATP/ADP ratio was measured using ADP Assay Kit (Sigma Catalog No. MAK133-1KT) following manufacturer's protocol. For THP-1 cells, 24 hours before the experiment, cells were resuspended in fresh complete RPMI media. For heme treatment, 1 mL of treated cell suspension was incubated for 1 hour at 37° C. cell culture incubator, then centrifuged and resuspended in 1 mL of fresh warm complete RPMI media in order to wash off excess heme, which interferes with the assays. […] per well (approximately 10,000 cells total) was placed in a white 96-well plate, lysed with 90 μL of ATP Buffer, and incubated with gentle shaking at room temperature for 10 min. Relative ATP amount was directly measured using luminescence. Then, 5 μL of ADP Enzyme mix was added to each well and the plate was incubated with light shaking for 3 minutes. Relative amount of ADP+ATP was measured using luminescence. ADP amount was calculated by subtracting the ATP signal from ADP+ATP signal. To get ATP/ADP ratio, ATP signal was divided by the calculated ADP signal. For BMDMs, the assay was performed following the same protocol but using 20,000 cells per well.

For C=CC1=C(C)c2cc3[n-]c(cc4[n-]c(cc5nc(cc1n2)C(C)=C5C=C)c(C)c4CCC(=O)O)c(CCC(=O)O)c3C.[Fe+2] [heme], the ECAR (4B8^FL cells [1]) was “increased”, the OCR (4B8^FL cells [1]) was “increased” and the MMP (4B8^FL cells [2]) was “decreased”. The ATP/ADP ratio (THP-1 cells) was “reduced”.
